Residues, ends and D or L forms follow the SMILES beside them.
Columns and labels:
Panc-1 cells = experiment: Saturation cell binding assay, Panc-1; set-up: species or system human; settings: biotin-labeled peptide 0-256 µM, 4 °C, 1 h
Protocol: Supplementary Information
Supplementary Materials and Methods
Saturation binding assays to determine the cellular binding affinities of peptides Cells (5 × 10^3 cells per well in a 96-well plate) were incubated with 1% bovine serum albumin (BSA) for 30 min and with different concentrations of biotin-labeled peptides (0, 2, 4, 8, 16, 32, 64, 128, and 256 µM) at 4 °C for 1 h. After washing, the cells were incubated with horseradish peroxidase-conjugated neutravidin (1:10,000 dilution; ThermoFisher Scientific, Waltham, MA) for 30 min at room temperature. Enzymatic activity was detected using a 3,3ʹ,5,5ʹ-tetramethylbenzidine substrate (ThermoFisher Scientific), and the reaction was stopped using 2 M sulfuric acid. The absorbance at 450 nm was measured in each well using a microplate reader (Tecan, Mannedorf, Switzerland). The KD values were then calculated using GraphPad Prism 6 software (GraphPad Inc., La Jolla, CA). […]
10 µM biotin-labeled CD44v6-binding peptides at 4 °C for 1 h. […]
Scientific) for 30 min at room temperature. […]

MDA-MB231-luc cells = experiment: MDA-MB231-luc experimental lung metastasis model; type: in vivo; settings: for number of tumor nodules in the lungs, peptide in combination with crizotinib versus single treatment / survival rate, peptide in combination with crizotinib versus single treatment: peptide 14.2 mg/kg i.v. plus crizotinib 25 mg/kg oral; for numbers of metastatic tumor nodules in the lungs / weights of the isolated lungs: peptide 14.2 mg/kg i.v. thrice weekly for 3 weeks; for luminescence signals and total photon flux in the whole body: peptide 14.2 mg/kg i.v. thrice weekly for 3 weeks from 1 h after tumor cell injection; for survival rate: peptide 14.2 mg/kg i.v. thrice weekly or crizotinib 25 mg/kg oral twice weekly, 3 weeks, single treatment; for liver and kidney functional marker levels (BUN, CRE, AST, ALT): peptide alone or in combination with crizotinib, serum, n = 5/group
Protocol: A mouse model of lung metastasis of breast cancer was prepared by injecting 1 × 10^6 MDA-MB231-luc cells into 6-week-old female BALB/c nude mice via tail vein. To monitor the localization of the tumor cells in the lungs, the mice were injected intraperitoneally with D-luciferin at a dose of 150 mg/kg body weight and subjected to a whole-body bioluminescence imaging using IVIS imaging system (Perkin Elmer) after a 10-min resting period. Mice (n = 10 per group) were randomly assigned to groups based on the luminescence intensity. At 1 h after tumor cell injection, tumor-bearing mice received intravenous injections of CD44v6-binding peptides through the tail vein (14.2 mg/kg body weight, thrice weekly for 3 weeks) alone or in combination with orally administered crizotinib in 5% dimethyl sulfoxide (DMSO) (25 mg/kg of body weight, twice weekly for 3 weeks) as previously described, [29]. Metastatic tumor growth after treatments was monitored by measuring the total photon flux (number of photons/second) in the whole body using the IVIS imaging system. The body weights of mice and tumor ulceration were monitored throughout the treatment period. At the end of the treatment period, half of the mice (n = 5 per group) were used for the collection of blood, sacrificed, the lungs were harvested and weighed, and the numbers of metastatic tumor nodules in the lungs were counted. The remaining mice (n = 5 per group) were maintained until death to determine the survival rates. For the analysis of hematological parameters, 1 mL of blood was collected from each mouse and separated into 500 µL aliquots used to prepare serum and plasma. Serum was obtained by centrifuging clotted blood at 4 °C twice, followed by filtration (pore size: 0.22 µm). Plasma was obtained by centrifuging ethylenediaminetetraacetic acid-treated samples. Hematological parameters and liver and kidney function markers were measured by DGMIF (Daegu, Korea).

4T1 cells = experiment: Transwell cell migration and invasion assays, 4T1; type: cell-based, mouse; settings: HGF 25 ng/mL, 24 h
Protocol: Transwell chambers (24-wells) with 8 μm pores were obtained from Corning (Corning, NY). MDA-MB231 and 4T1 cells (1 × 10^6 cells) were harvested, resuspended in 200 μL of DMEM containing CD44v6-binding peptides (20 µM), and then seeded into the upper chamber of the transwell chambers. The lower chamber was filled with 600 μL of DMEM containing 25 ng/mL HGF. After 24 h of incubation, cells that migrated into the reverse side of the transwell membrane were fixed with methanol, stained with crystal violet, and then counted under a light microscope. An average of five visual fields was obtained. For invasion assays, the transwell membrane was pre-coated with 300 µg/mL of Matrigel (Corning). […]
phosphorylation in 4T1 cells. (C-D) Transwell migration (C) and invasion (D) assays of 4T1 cells pre-treated or not with 5 μg/mL NLN and NEW for 10 min and subsequently treated with 25 ng/mL HGF for 10 min, followed by incubation for 24 h. Scale bars = 20 μm. Graphs (right panels) represent the quantification of the cell numbers in ten randomly selected fields. Data are shown as the means ± S.E. of three independent experiment. **, P < 0.01; ***, P < 0.001; n.s, not significant compared with HGF by one-way ANOVA.

| SMILES | Kd (Panc-1 cells) | number of tumor nodules in the lungs, peptide in combination with crizotinib versus single treatment (MDA-MB231-luc cells) | survival rate, peptide in combination with crizotinib versus single treatment (MDA-MB231-luc cells) | numbers of metastatic tumor nodules in the lungs (MDA-MB231-luc cells) | weights of the isolated lungs (MDA-MB231-luc cells) | luminescence signals and total photon flux in the whole body (MDA-MB231-luc cells) | survival rate (MDA-MB231-luc cells) | liver and kidney functional marker levels (BUN, CRE, AST, ALT) (MDA-MB231-luc cells) | HGF-induced cell migration and invasion, 4T1 (4T1 cells) | serum alanine transferase levels (MDA-MB231-luc cells; above the normal ranges, 14.2 mg/kg i.v. thrice weekly for 3 weeks) |
| --- | --- | --- | --- | --- | --- | --- | --- | --- | --- | --- |
| CC(C)C[C@H](NC(=O)[C@H](CCC(N)=O)NC(=O)[C@H](Cc1c[nH]c2ccccc12)NC(=O)[C@H](CCC(=O)O)NC(=O)[C@H](CC(N)=O)NC(=O)[C@@H](N)CS)C(=O)N[C@@H](CCCCN)C(=O)N[C@@H](CO)C(=O)N[C@@H](CS)C(=O)O [NEW] (H-CNEWQLKSC-OH; N-terminus and C-terminus assumed) | 7 ± 3 µM | more efficiently reduced | increased the survival rate | reduced | reduced | decreased | increased | within or close to the normal ranges | inhibited | – |
| CC[C@H](C)[C@H](NC(=O)[C@@H](NC(=O)[C@H](CC(N)=O)NC(=O)[C@H](CC(C)C)NC(=O)[C@H](CC(N)=O)NC(=O)[C@@H](N)CS)[C@@H](C)O)C(=O)N[C@@H](CC(=O)O)C(=O)N[C@H](C(=O)N[C@@H](CS)C(=O)O)[C@@H](C)O [NLN] (H-CNLNTIDTC-OH; N-terminus and C-terminus assumed) | 8 ± 5 µM | more efficiently reduced | increased the survival rate | reduced | reduced | decreased | increased | within or close to the normal ranges | inhibited | significantly increased |

Reference: PMC7738880, “Identification of novel CD44v6-binding peptides that block CD44v6 and deliver a pro-apoptotic peptide to tumors to inhibit tumor growth and metastasis in mice” (Theranostics, 2021)
